What was measured:
Test in all cases: relative viability (nuclei count vs DMSO), 5 days (fraction); higher = more cells survive
IDH-C35 + Vorinostat = compound: Cc1ccccc1C(C(=O)NC1CCCCC1)N(C(=O)Cn1ccnc1C)c1cccc(F)c1 [IDH-C35] + O=C(CCCCCCC(=O)Nc1ccccc1)NO [Vorinostat] (partner 1 µM)
Outline: (§1)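 Nuclei were stained with Hoechst during a one-step fixation (final 0.05% Triton X-100, 1% formaldehyde, 1 ug/ml Hoechst) carried out 5 days after dosing, then counted on 4× images. The cells, lung cancer lines in 1536-well plates, had been dosed by pin tool the day after seeding with one drug alone or a fixed anchor-drug dose plus five library-drug doses (not always all listed) in √10 steps. Relative viability is the nuclei count in treated wells divided by that in vehicle wells, and each value is the median of duplicate plates.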

[1] = compound: CC1=C(C(=NN1)C)CC2=C(C3=C(S2)N(C(=O)N(C3=O)C)CC(C)C)C(=O)N4C[C@@H](CO4)O + Cc1nc(NC(=O)N2CCC[C@H]2C(N)=O)sc1-c1ccnc(C(C)(C)C(F)(F)F)c1 [Alpelisib] (partner 2 µM)
Outline: as §1

[2] = compound: CC1=C(C(=NN1)C)CC2=C(C3=C(S2)N(C(=O)N(C3=O)C)CC(C)C)C(=O)N4C[C@@H](CO4)O + CC(=O)Nc1cccc(-n2c(=O)n(C3CC3)c(=O)c3c(Nc4ccc(I)cc4F)n(C)c(=O)c(C)c32)c1 [Trametinib] (partner 0.02 µM)
Outline: as §1

[3] = compound: CC1=C(C(=NN1)C)CC2=C(C3=C(S2)N(C(=O)N(C3=O)C)CC(C)C)C(=O)N4C[C@@H](CO4)O + N=C(N)NC(=N)NCCc1ccccc1 [Phenformin] (partner 250 µM)
Outline: as §1

Cell Line | relative viability (IDH-C35 + Vorinostat; first compound 0.08 µM) | relative viability (IDH-C35 + Vorinostat; first compound 0.253 µM) | relative viability (IDH-C35 + Vorinostat; first compound 0.8 µM) | relative viability (IDH-C35 + Vorinostat; first compound 8 µM) | relative viability ([1]; first compound 0.0025 µM) | relative viability ([1]; first compound 0.007906 µM) | relative viability ([1]; first compound 0.025 µM) | relative viability ([1]; first compound 0.07906 µM) | relative viability ([1]; first compound 0.25 µM) | relative viability ([2]; first compound 0.0025 µM) | relative viability ([2]; first compound 0.007906 µM) | relative viability ([2]; first compound 0.025 µM) | relative viability ([2]; first compound 0.07906 µM) | relative viability ([2]; first compound 0.25 µM) | relative viability ([3]; first compound 0.0025 µM) | relative viability ([3]; first compound 0.007906 µM) | relative viability ([3]; first compound 0.025 µM) | relative viability ([3]; first compound 0.07906 µM) | relative viability ([3]; first compound 0.25 µM) | relative viability (IDH-C35 + Vorinostat; first compound 2.53 µM)
HCC-15 | 0.796 | 0.857 | 0.877 | 0.707 | 0.953 | 0.914 | 0.901 | 0.854 | 0.942 | 0.411 | 0.365 | 0.378 | 0.407 | 0.415 | 0.486 | 0.49 | 0.46 | 0.482 | 0.518 | –
HCC-44 | 1.11 | 1.09 | 1.12 | 1.11 | 0.817 | 0.851 | 0.798 | 0.795 | 0.777 | 1.11 | 1.08 | 1.1 | 1.05 | 1.05 | 0.263 | 0.223 | 0.142 | 0.208 | 0.225 | 1.13
HCC-78 | 0.447 | 0.484 | 0.457 | 0.531 | 0.409 | 0.343 | 0.315 | 0.319 | 0.299 | 0.796 | 0.77 | 0.775 | 0.663 | 0.811 | 0.795 | 0.842 | 0.574 | 0.671 | 0.575 | 0.381
HCC-366 | 0.49 | 0.351 | 0.321 | 0.404 | 0.489 | 0.475 | 0.396 | 0.54 | 0.49 | 0.367 | 0.501 | 0.376 | 0.455 | 0.324 | 0.622 | 0.574 | 0.669 | 0.606 | 0.693 | 0.371
HCC-827 | 0.731 | 0.85 | 0.811 | 0.868 | 1.01 | 1.01 | 0.962 | 0.93 | 0.939 | 0.556 | 0.542 | 0.529 | 0.51 | 0.521 | 0.379 | 0.408 | 0.425 | 0.407 | 0.399 | 0.789
HOP-62 | 0.532 | 0.708 | 0.669 | 0.628 | 0.959 | 1.15 | 1.01 | 0.862 | 0.696 | 0.365 | 0.402 | 0.408 | 0.435 | 0.4 | 0.649 | 0.564 | 0.656 | 0.624 | 0.861 | 0.434
IA-LM | 1 | 0.878 | 0.881 | 1.05 | 0.832 | 0.812 | 0.858 | 0.749 | 0.991 | – | – | – | – | – | – | – | – | – | – | –
LC-2-ad | 0.694 | 0.701 | 0.67 | 0.677 | 0.985 | 0.85 | 0.842 | 0.897 | 0.921 | 0.928 | 0.874 | 0.922 | 0.896 | 0.927 | 0.604 | 0.59 | 0.528 | 0.573 | 0.648 | 0.632
NCI-H522 | 0.953 | 1.12 | 0.896 | 0.883 | – | – | – | – | – | 0.77 | 0.768 | 0.701 | 0.606 | 0.657 | 0.551 | 0.686 | 0.376 | 0.327 | 0.265 | 0.872
NCI-H1299 | – | – | – | – | 1.07 | 1.08 | 1.01 | 1.09 | 1.11 | – | – | – | – | – | – | – | – | – | – | –
NCI-H1563 | – | – | – | – | 1 | 0.847 | 0.954 | 0.959 | 0.893 | – | – | – | – | – | 0.667 | 0.666 | 0.729 | 0.711 | 0.667 | –
NCI-H1623 | – | – | – | – | – | – | – | – | – | – | – | – | – | – | 0.465 | 0.408 | 0.514 | 0.525 | 0.378 | –
NCI-H1648 | – | 0.415 | 0.523 | 0.525 | – | – | – | – | – | 0.593 | 0.431 | 0.635 | 0.356 | 0.52 | – | – | – | – | – | 0.443
NCI-H1650 | 0.685 | 0.491 | 0.569 | 0.84 | – | – | – | – | – | 0.626 | 0.687 | 0.759 | 0.62 | 0.788 | 0.536 | 0.473 | 0.457 | 0.506 | 0.46 | 0.588
NCI-H1703 | – | – | – | – | 0.366 | 0.211 | 0.32 | 0.309 | 0.299 | – | – | – | – | – | – | – | – | – | – | –
NCI-H1792 | – | – | – | – | 0.82 | 0.624 | 0.699 | 0.58 | 0.555 | 0.471 | 0.418 | 0.409 | 0.548 | 0.585 | 0.259 | 0.173 | 0.127 | 0.172 | 0.155 | –
NCI-H2342 | 0.817 | 0.712 | 0.793 | 0.806 | – | – | – | – | – | 0.932 | 0.751 | 0.724 | 0.854 | 0.976 | 0.493 | 0.532 | 0.398 | 0.384 | 0.401 | 0.715
SW 900 | 0.496 | 0.44 | – | 0.529 | – | – | – | – | – | 0.666 | 0.951 | 0.787 | 0.74 | 0.8 | 0.735 | 0.675 | 0.535 | 0.779 | 0.589 | 0.505
